We go through eight molecules from US20260144788A1, “COMPOUND FOR SHP2 PROTEIN DEGRADATION AND MEDICAL USES THEREOF” (UBIX THERAPEUTICS, INC., priority 2022, published 2026).

The target in the test is T1, SHP2 protein (Homo sapiens, UniProt Q06124).
T1 sequence (Q06124 1-593): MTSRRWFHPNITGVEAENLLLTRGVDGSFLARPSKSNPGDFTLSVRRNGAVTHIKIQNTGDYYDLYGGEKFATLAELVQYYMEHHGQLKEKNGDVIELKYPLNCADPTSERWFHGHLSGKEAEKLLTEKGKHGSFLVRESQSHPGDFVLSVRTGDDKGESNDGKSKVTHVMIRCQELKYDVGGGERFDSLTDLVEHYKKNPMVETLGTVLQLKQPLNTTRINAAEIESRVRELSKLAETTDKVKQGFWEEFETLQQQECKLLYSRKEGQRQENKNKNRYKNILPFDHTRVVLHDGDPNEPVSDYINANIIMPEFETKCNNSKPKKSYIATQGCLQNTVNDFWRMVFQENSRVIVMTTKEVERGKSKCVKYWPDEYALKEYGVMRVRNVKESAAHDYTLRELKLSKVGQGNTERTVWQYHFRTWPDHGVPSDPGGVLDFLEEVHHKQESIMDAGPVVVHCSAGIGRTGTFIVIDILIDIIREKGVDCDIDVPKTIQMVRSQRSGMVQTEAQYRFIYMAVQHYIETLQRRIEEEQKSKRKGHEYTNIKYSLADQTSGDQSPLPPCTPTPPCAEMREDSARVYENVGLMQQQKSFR
Kind of test: Measurement of SHP2 protein degradation in MV-4-11 cells (western blotting). It is filed as cell-based. To be noted: harvested after 24 hours. Also on record: endogenous in cells. The method, then: MV-4-11 cells were treated with the synthesized Example compounds, and the amount of SHP2 protein present in the cells was measured using western blotting detection. The protocol for the experiment conducted using MV-4-11 cells is as follows.
[Culture] MV-4-11 cells were resuspended in IMDM MEDIUM (Hyclone, SH30228.01), 5% FBS (Hyclone, SV30207.02), 1% Penicillin-streptomycin (Welgene, LS 202-02) media and seeded at 1×10^6/mL in 12-well plates (1 mL each).
[Compound treatment]12-well plates were treated as follows. 10 mM stock dissolved in DMSO was serially diluted 1/100 or 1/10 with media, and the compounds were treated to the cells at a final concentration of 0.01, 0.1, 1 μM or 0.001, 0.01, 0.1 μM, and harvested after 24 hours. For the negative control group, DMSO diluted 1/100 or 1/1000 in media was added (3 μL DMSO+297 μL media or 1 μL DMSO+999 μL media).
[Harvest] Each well was pipetted with a 1 mL pipette, collected in a 1.5 mL microtube, and centrifuged (500 g, 5 min, 4° C.). The supernatant was removed, washed with PBS, and centrifuged again (500 g, 5 min, 4° C.). The supernatant was removed and a pellet was prepared.
[Cell lysis and sample preparation] Lysis buffer was prepared as follows. RIPA buffer (Biosesang, RC2038-050-00)+0.5 mM PMSF (SIGMA, P7626)+1× Protease/Phosphatase Inhibitor (Cell signaling, 5872S) were added at 50 μL per tube and incubated on ice for 30 minutes (vortexed at 0 and 30 minutes). After sonication (10 sec pulse, 30 sec rest, 5 cycles, 70% amplification) and centrifugation (15,000 g, 15 min, 4° C.), only the supernatant was transferred to a microtube. RIPA buffer 7.5 μL and sample 2.5 μL were added to a 96-well plate to dilute to 1/4, and then BCA Protein Assay Kit (iNtRON, 21071) A and B were mixed in a 50:1 ratio and 200 μL each was added. After that, the plate was incubated at 37° C. for 30 minutes and left at room temperature for 10 minutes. After shaking for 10 seconds with a SYNERGY H1 microplate reader from BioTek, the absorbance was measured at 562 nm. The protein was quantified using the measured value to prepare a sample, which was then incubated at 70° C. for 10 minutes. The sample buffer used at this time is a mixture of NuPAGE or Bolt 4× sample buffer (Invitrogen) and each 10× sample reducing agent according to the gel to be used, and RIPA buffer was used for protein dilution.
[Western blotting detection] Equal amounts of samples were loaded onto NuPAGE or Bolt Bis-tris 4-12% gradient gels and run (200 V, 35 min). This was transferred to […] NC membranes using Trans-blot Turbo (BIO-RAD) (1.3 A constant, 25 V limit, 15 min), and was blocked at room temperature for 1 hour with Skim milk or Intercept Blocking Buffer (LI-COR, 927-60001):0.1% TBST=1:1. Anti-SHPTP2 Mouse (1:500 in 2% BSA/0.2% TBST, size: 70 kDa, Santacruz sc-7384) was incubated overnight at 4° C., and Anti-GAPDH Rabbit (1:2,000 in 2% BSA/0.2% TBST, size: 37 kDa, CST #2118) was incubated at room temperature for 1.5 hours or 3 hours. After washing three times for 5 minutes each with 0.2% TBST washing buffer, secondary antibodies Anti-Mouse IgG (1:5,000 in 2% BSA/0.2% TBST, CST) and IRDye® 680RD Goat anti-Rabbit IgG Secondary Antibody (1:10,000 in 2% BSA/0.2% TBST, LI-COR 926-68071) were added, and incubated on a rocker at room temperature for 45 minutes. The resultants were washed five times for 5 minutes each with 0.2% TBST washing buffer, and detected using LI-COR's Odyssey. GAPDH was detected with a 700 nm channel, and SHPTP2 was detected using SuperSignal West Pico PLUS Chemiluminescent Substrate.
A general note: A western blot detects proteins with antibodies after separation by electrophoresis.

`Cc1ncsc1-c1ccc(CNC(=O)[C@@H]2C[C@@H](O)CN2C(=O)[C@@H](NC(=O)C2(F)CC2)C(C)(C)C)c(O[C@H]2CC[C@H](C(=O)N3CC(Nc4nccc(Sc5cnc(N6CCC(C)(CN)CC6)cn5)c4Cl)C3)CC2)c1` [Example 20, (2S,4R)—N-(2-(((1R,4S)-4-(3-((4-((5-(4-(aminomethyl)-4-methylpiperidin-1-yl)pyrazin-2-yl)thio)-3-chloropyridin-2-yl)amino)azetidine-1-carbonyl)cyclohexyl)oxy)-4-(4-methylthiazol-5-yl)benzyl)-1-((S)-2-(1-fluorocyclopropane-1-carboxamido)-3,3-dimethylbutanoyl)-4-hydroxypyrrolidine-2-carboxamide]: the SHP2% degradation amounted to 78.8% (0.01 μM) and 98.2% (0.1 μM).

With `CC(=O)N[C@H](C(=O)N1C[C@H](O)C[C@H]1C(=O)NCc1ccc(-c2scnc2C)cc1O[C@H]1CC[C@H](C(=O)N2CC(Nc3cccc(Sc4cnc(N5CCC6(CC5)Cc5ccccc5[C@H]6N)cn4)c3Cl)C2)CC1)C(C)(C)C` [Example 30, (2S,4R)-1-((S)-2-acetamido-3,3-dimethylbutanoyl)-N-(2-(((1R,4S)-4-(3-((3-((5-((S)-1-amino-1,3-dihydrospiro[indene-2,4′-piperidin]-1′-yl)pyrazin-2-yl)thio)-2-chlorophenyl)amino)azetidine-1-carbonyl)cyclohexyl)oxy)-4-(4-methylthiazol-5-yl)benzyl)-4-hydroxypyrrolidine-2-carboxamide], the SHP2% degradation (0.01 μM) is on record as 86.1% and the SHP2% degradation (0.1 μM) stood at 99.9%.

As to `Cc1ncsc1-c1ccc(CNC(=O)[C@@H]2C[C@@H](O)CN2C(=O)[C@@H](NC(=O)C2(F)CC2)C(C)(C)C)c(OCC2CCN(C(=O)C3CCN(c4nccc(Sc5cnc(N6CCC(C)(CN)CC6)cn5)c4Cl)CC3)CC2)c1` [Example 58, (2S,4R)—N-(2-((1-(1-(4-((5-(4-(aminomethyl)-4-methylpiperidin-1-yl)pyrazin-2-yl)thio)-3-chloropyridin-2-yl)piperidine-4-carbonyl)piperidin-4-yl)methoxy)-4-(4-methylthiazol-5-yl)benzyl)-1-((S)-2-(1-fluorocyclopropane-1-carboxamido)-3,3-dimethylbutanoyl)-4-hydroxypyrrolidine-2-carboxamide], the SHP2% degradation runs as follows: (0.01 μM) 82.0%; (0.1 μM) 97.7%.

Turning to `Cc1ncsc1-c1ccc(CNC(=O)[C@@H]2C[C@@H](O)CN2C(=O)[C@@H](NC(=O)C2(F)CC2)C(C)(C)C)c(OCCN2CCN(CCNc3cccc(Sc4cnc(N5CCC(C)(CN)CC5)cn4)c3Cl)CC2)c1` [Example 2, (2S,4R)—N-(2-(2-(4-(2-((3-((5-(4-(aminomethyl)-4-methylpiperidin-1-yl)pyrazin-2-yl)thio)-2-chlorophenyl)amino)ethyl)piperazin-1-yl)ethoxy)-4-(4-methylthiazol-5-yl)benzyl)-1-((S)-2-(1-fluorocyclopropane-1-carboxamido)-3,3-dimethylbutanoyl)-4-hydroxypyrrolidine-2-carboxamide], the SHP2% degradation is, setting by setting: (0.01 μM) 11.8%; (0.1 μM) 80.3%.

On to `Cc1ncsc1-c1ccc(CNC(=O)[C@@H]2C[C@@H](O)CN2C(=O)[C@@H](NC(=O)C2(F)CC2)C(C)(C)C)c(OCCN2CCN(C(=O)CNc3cccc(Sc4cnc(N5CCC(C)(CN)CC5)cn4)c3Cl)CC2)c1` [Example 4, (2S,4R)—N-(2-(2-(4-((3-((5-(4-(aminomethyl)-4-methylpiperidin-1-yl)pyrazin-2-yl)thio)-2-chlorophenyl)glycyl)piperazin-1-yl)ethoxy)-4-(4-methylthiazol-5-yl)benzyl)-1-((S)-2-(1-fluorocyclopropane-1-carboxamido)-3,3-dimethylbutanoyl)-4-hydroxypyrrolidine-2-carboxamide], for which the SHP2% degradation worked out at 42.9% (0.01 μM) and 95.6% (0.1 μM).

In the case of `Cc1ncsc1-c1ccc(CNC(=O)[C@@H]2C[C@@H](O)CN2C(=O)[C@@H](NC(=O)C2(F)CC2)C(C)(C)C)c(OC2CN(C(=O)C3CCN(c4nccc(Sc5cnc(N6CCC(C)(CN)CC6)cn5)c4Cl)CC3)C2)c1` [Example 73, (2S,4R)—N-(2-((1-(1-(4-((5-(4-(aminomethyl)-4-methylpiperidin-1-yl)pyrazin-2-yl)thio)-3-chloropyridin-2-yl)piperidine-4-carbonyl)azetidin-3-yl)oxy)-4-(4-methylthiazol-5-yl)benzyl)-1-((S)-2-(1-fluorocyclopropane-1-carboxamido)-3,3-dimethylbutanoyl)-4-hydroxypyrrolidine-2-carboxamide], the SHP2% degradation runs as follows: (0.01 μM) 65.8%; (0.1 μM) 97.7%.

Turning to `Cc1ncsc1-c1ccc(CNC(=O)[C@@H]2C[C@@H](O)CN2C(=O)[C@@H](NC(=O)C2(F)CC2)C(C)(C)C)c(OC2CCN(C(=O)[C@H]3CC[C@H](Nc4nccc(Sc5cnc(N6CCC(C)(CN)CC6)cn5)c4Cl)CC3)CC2)c1` [Example 62, (2S,4R)—N-(2-((1-((1R,4S)-4-((4-((5-(4-(aminomethyl)-4-methylpiperidin-1-yl)pyrazin-2-yl)thio)-3-chloropyridin-2-yl)amino)cyclohexanecarbonyl)piperidin-4-yl)oxy)-4-(4-methylthiazol-5-yl)benzyl)-1-((S)-2-(1-fluorocyclopropane-1-carboxamido)-3,3-dimethylbutanoyl)-4-hydroxypyrrolidine-2-carboxamide], the SHP2% degradation (0.01 μM) came to 75.6% and the SHP2% degradation (0.1 μM) was 98.9%.

For the molecule `Cc1ncsc1-c1ccc(CNC(=O)[C@@H]2C[C@@H](O)CN2C(=O)[C@@H](NC(=O)C2(F)CC2)C(C)(C)C)c(OC2CCN(C(=O)C3CCN(c4nccc(Sc5cnc(N6CCC(C)(CN)CC6)cn5)c4Cl)CC3)CC2)c1` [Example 65, (2S,4R)—N-(2-((1-(1-(4-((5-(4-(aminomethyl)-4-methylpiperidin-1-yl)pyrazin-2-yl)thio)-3-chloropyridin-2-yl)piperidine-4-carbonyl)piperidin-4-yl)oxy)-4-(4-methylthiazol-5-yl)benzyl)-1-((S)-2-(1-fluorocyclopropane-1-carboxamido)-3,3-dimethylbutanoyl)-4-hydroxypyrrolidine-2-carboxamide], the SHP2% degradation (0.01 μM) came out at 85.2% and the SHP2% degradation (0.1 μM) was 98.1%.
